In patent publication US9951071B2 (priority 2012, dated 2018):
Structures can show the parent of a compound that is named as a salt. Where two headings read alike, the source gives them in different places.

Legend:
[1] = rcm bond, 12-membered ring
[2] = rcm bond, 12-membered ring, Grubbs II/pTsOH, DCM
[3] = molecular target: purified human Factor XIa (Homo sapiens (Human), UniProt P03951); assay: biochemical
[4] = molecular target: purified human plasma kallikrein (Homo sapiens (Human), UniProt P03952); assay: biochemical
purified human plasma kallikrein, sequence (P03952 whole entry, looked up): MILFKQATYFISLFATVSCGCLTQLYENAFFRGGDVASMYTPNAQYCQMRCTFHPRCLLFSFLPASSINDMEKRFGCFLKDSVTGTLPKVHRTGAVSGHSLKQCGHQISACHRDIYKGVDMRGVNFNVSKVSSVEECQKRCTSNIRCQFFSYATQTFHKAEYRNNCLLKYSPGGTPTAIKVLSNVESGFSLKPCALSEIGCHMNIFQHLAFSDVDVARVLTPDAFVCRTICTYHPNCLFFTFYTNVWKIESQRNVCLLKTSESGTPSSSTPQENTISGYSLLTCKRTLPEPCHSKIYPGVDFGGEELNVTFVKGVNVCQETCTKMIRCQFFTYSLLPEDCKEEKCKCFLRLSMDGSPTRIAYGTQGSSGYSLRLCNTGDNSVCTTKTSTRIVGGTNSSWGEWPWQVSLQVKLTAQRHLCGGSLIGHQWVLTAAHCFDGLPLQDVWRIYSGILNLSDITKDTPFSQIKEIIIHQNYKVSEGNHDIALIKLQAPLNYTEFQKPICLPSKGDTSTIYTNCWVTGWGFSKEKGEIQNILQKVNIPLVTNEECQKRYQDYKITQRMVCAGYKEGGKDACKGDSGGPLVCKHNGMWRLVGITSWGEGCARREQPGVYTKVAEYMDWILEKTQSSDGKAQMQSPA
purified human plasma kallikrein, sequence (P03952 whole entry, looked up): as above

[5] = from C=CC[C@H](NC(=O)OC(C)(C)C)c1cc(-c2ccccc2NC(=O)C(C=C)C(C)C)ccn1, Grubbs II (2 x 0.2 eq), microwave, DCE, 40.0 mM, […]

purified human Factor XIa, sequence (P03951 whole entry, looked up): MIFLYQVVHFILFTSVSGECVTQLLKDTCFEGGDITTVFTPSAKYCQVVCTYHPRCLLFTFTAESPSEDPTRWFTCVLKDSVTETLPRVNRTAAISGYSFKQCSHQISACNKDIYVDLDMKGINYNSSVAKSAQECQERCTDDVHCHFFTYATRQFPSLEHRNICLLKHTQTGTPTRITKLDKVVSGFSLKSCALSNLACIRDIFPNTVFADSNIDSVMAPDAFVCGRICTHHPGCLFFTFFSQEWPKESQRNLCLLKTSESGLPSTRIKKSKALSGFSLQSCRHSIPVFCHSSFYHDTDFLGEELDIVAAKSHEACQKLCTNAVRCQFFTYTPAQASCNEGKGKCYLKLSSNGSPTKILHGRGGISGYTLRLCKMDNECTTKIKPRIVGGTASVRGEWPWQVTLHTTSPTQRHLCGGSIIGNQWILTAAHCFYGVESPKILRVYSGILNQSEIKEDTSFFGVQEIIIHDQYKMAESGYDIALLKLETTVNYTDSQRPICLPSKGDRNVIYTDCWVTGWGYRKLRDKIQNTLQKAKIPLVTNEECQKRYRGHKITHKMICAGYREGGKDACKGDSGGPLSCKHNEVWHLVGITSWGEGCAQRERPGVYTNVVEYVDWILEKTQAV
purified human Factor XIa, sequence (P03951 whole entry, looked up): as above

Question: For CC(C)[C@@H]1/C=C/C[C@H](NC(=O)OC(C)(C)C)c2cc(ccn2)-c2ccccc2NC1=O, which ring closure, isolated yield [1, 5] is on record?
Answer: Its ring closure, isolated yield is 10.2%.

Question: With CC(C)[C@H]1/C=C/C[C@H](NC(=O)OC(C)(C)C)c2cc(ccn2)-c2ccccc2NC1=O as the compound, how does the ring closure, isolated yield [1, 5] read?
Answer: The ring closure, isolated yield was 8.9%.

Question: With COC(=O)Nc1ccc2c(c1)C(=O)NC/C=C/C[C@H](NC(=O)OC(C)(C)C)c1cc-2ccn1 as the compound, how does the ring closure, yield after HPLC ([2]; from C=CCNC(=O)c1cc(NC(=O)OC)ccc1-c1ccnc([C@H](CC=C)NC(=O)OC(C)(C)C)c1, […], 3.0 h) read?
Answer: The ring closure, yield after HPLC was 39.4%.

Question: For COC(=O)Nc1ccc2c(c1)NC(=O)[C@H](C)/C=C/C[C@H](NC(=O)OC(C)(C)C)c1nc-2cn1COCC[Si](C)(C)C, which ring closure, isolated yield ([1]; from C=CC[C@H](NC(=O)OC(C)(C)C)c1nc(-c2ccc(NC(=O)OC)cc2NC(=O)[C@H](C)C=C)cn1COCC[Si](C)(C)C, Grubbs II (0.4 eq)/pTsOH, DCM, 10.0 mM, 40.0 °C, 21.5 h) is on record?
Answer: The ring closure, isolated yield was 40.7%.

Question: With C[C@@H]1/C=C/C[C@H](NC(=O)OC(C)(C)C)c2cc(ccn2)-c2ccccc2NC1=O as the compound, how does the ring closure, isolated yield ([1]; from C=CC[C@H](NC(=O)OC(C)(C)C)c1cc(-c2ccccc2NC(=O)[C@H](C)C=C)ccn1, Grubbs II/pTsOH, DCM, 11.8 mM, 40.0 °C, 4.5 h) read?
Answer: Its ring closure, isolated yield is 78%.

Question: Which results are given for C[C@@H]1CCC[C@H](N2CCC(c3c(F)ccc(Cl)c3F)=CC2=O)c2cc(ccn2)-c2ccncc2NC1=O [Example 72, (10R,14S)-14-[4-(3-Chloro-2,6-difluorophenyl)-6-oxo-1,2,3,6-tetrahydropyridin-1-yl]-10-methyl-5,8,16-triazatricyclo[13.3.1.0^2,7]nonadeca-1(19),2(7),3,5,15,17-hexaen-9-one, TFA Salt]?
Answer: Ki [3]: 8.67 nM; Ki [4]: 19 nM

Question: For COC(=O)c1ccc2c(c1)-c1cccc(c1)[C@@H](N1CC=C(c3c(F)ccc(Cl)c3F)CC1=O)CCC[C@@H](C)C(=O)N2 [Example 174, Methyl (10R,14S)-14-[4-(3-chloro-2,6-difluorophenyl)-2-oxo-1,2,3,6-tetrahydropyridin-1-yl]-10-methyl-9-oxo-8-azatricyclo[13.3.1.0^2,7]nonadeca-1(19),2,4,6,15,17-hexaene-4-carboxylate], which Ki [3] is on record?
Answer: The Ki was over 625 nM.

Question: Which Ki [3] does the source give for COC(=O)c1ccc2c(c1)-c1cccc(c1)[C@@H](N1CC=C(c3c(Br)ccc(Cl)c3F)CC1=O)CCC[C@@H](C)C(=O)N2 [Example 176, Methyl (10R,14S)-14-[4-(6-bromo-3-chloro-2-fluorophenyl)-2-oxo-1,2,3,6-tetrahydropyridin-1-yl]-10-methyl-9-oxo-8-azatricyclo[13.3.1.0^2,7]nonadeca-1(19),2,4,6,15,17-hexaene-4-carboxylate] here?
Answer: Its Ki is over 625 nM.

Question: With “tert-butyl N-[(10R,11Z,14S)-17-methoxy-5-[(methoxycarbonyl)amino]-10-methyl-9-oxo-8,16-diazatricyclo[13.3.1.0^2,7]nonadeca-1(19),2,4,6,11,15,17-heptaen-14-yl]carbamate and tert-butyl N-[(10R,11E,14S)-17-methoxy-5-[(methoxycarbonyl)amino]-10-methyl-9-oxo-8,16-diazatricyclo[13.3.1.0^2,7]nonadeca-1(19),2,4,6,11,15,17-heptaen-14-yl]carbamate as a Mixture” as the compound, how does the ring closure, yield after HPLC ([2]; 8.5 mM) read?
Answer: Its ring closure, yield after HPLC is 29%.
